What all share (assay): cAMP induction, firefly luciferase reporter assay in HEK293 cells co-transfected with receptor
Format in all cases: cell-based
(A reporter such as luciferase makes a cellular process visible.)

One assay concerns the target T1, GLP-1 receptor (Homo sapiens, UniProt P43220).
T1 construct: expressed in transfected cells; host or cells: HEK293
On the procedure: (§1) The ability of glucagon analogs to induce cAMP was measured in a firefly luciferase-based reporter assay. […] At the end of the incubation 100 microliters of LucLite luminescence substrate reagent (Perkin-Elmer, Wellesley, Mass.) were added to each well. […] Effective 50% concentrations were calculated by using Origin software (OriginLab, Northampton, Mass.

The target of a further assay is T2, glucagon receptor (Homo sapiens, UniProt P47871).
T2 construct: expressed in transfected cells; host or cells: HEK293
T2 sequence (P47871 26-477): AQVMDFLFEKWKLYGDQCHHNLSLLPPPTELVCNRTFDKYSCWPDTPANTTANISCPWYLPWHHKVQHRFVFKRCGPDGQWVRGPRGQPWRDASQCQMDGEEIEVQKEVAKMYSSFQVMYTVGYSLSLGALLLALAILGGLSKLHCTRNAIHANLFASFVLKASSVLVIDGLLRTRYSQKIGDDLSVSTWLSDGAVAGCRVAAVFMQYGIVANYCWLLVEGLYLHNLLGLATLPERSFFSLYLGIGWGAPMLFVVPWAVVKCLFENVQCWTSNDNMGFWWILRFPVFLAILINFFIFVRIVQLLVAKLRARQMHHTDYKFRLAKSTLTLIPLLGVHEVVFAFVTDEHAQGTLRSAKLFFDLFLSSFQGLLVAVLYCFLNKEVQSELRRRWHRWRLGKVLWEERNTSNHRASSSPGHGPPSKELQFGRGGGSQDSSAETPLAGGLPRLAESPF
On the procedure: as §1

A further assay concerns the target T3, GIP receptor (Homo sapiens, UniProt P48546).
T3 construct: expressed in transfected cells; host or cells: HEK293
T3 sequence (P48546 22-466): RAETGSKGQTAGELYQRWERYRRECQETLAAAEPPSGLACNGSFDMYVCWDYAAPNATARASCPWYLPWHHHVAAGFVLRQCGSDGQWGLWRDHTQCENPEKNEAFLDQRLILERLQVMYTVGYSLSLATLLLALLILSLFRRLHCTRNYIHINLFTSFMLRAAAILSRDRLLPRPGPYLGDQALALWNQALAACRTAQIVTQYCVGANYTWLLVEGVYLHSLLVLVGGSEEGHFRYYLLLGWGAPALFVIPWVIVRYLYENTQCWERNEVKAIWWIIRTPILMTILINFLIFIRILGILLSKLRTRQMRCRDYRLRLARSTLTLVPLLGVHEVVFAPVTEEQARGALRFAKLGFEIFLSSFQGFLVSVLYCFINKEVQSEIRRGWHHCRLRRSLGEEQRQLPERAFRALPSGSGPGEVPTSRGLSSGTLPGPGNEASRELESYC
On the procedure:
as §1

[1] abbreviates: Table 3, analogs of SEQ ID NO: 12.
The mark [2] stands for this setting: Table 2, analogs of SEQ ID NO: 10.

By EC50 is commonly meant the concentration giving half of the maximal effect. Low readings indicate an effect from little substance, high ones a need for much substance.

Numbered stars: 1 amine (or outer) side, 2 acyl side, 3 side chain; on linkers, the order of the positions; unused ones are H or OH. Square brackets hold non-standard residues; d marks the D form. Side chains are listed from the residue outwards. Peptide text beside a SMILES is read from it. * marks the point of attachment. γGlu = O=C(O)[C@H](CCC(=O)[*:2])N[*:1]; Palmitoyl = CCCCCCCCCCCCCCCC(=O)*

T1 sequence (P43220 24-463): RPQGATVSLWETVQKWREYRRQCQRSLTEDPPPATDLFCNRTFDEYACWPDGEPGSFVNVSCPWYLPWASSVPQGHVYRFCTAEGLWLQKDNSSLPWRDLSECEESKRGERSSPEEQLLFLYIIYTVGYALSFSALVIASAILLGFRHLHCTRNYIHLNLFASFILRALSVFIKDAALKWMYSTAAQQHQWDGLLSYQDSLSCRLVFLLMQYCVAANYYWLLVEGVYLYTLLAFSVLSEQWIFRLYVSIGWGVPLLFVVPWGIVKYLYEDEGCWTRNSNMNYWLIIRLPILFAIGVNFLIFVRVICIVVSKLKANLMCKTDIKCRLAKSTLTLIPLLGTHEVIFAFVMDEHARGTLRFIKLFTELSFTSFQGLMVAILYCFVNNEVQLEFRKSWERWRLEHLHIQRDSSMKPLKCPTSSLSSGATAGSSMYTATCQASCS

Consider `CCCCCCCCCCCCCCCC(=O)N[C@@H](CCC(=O)NCCCC[C@H](NC(=O)[C@H](CC(=O)O)NC(=O)[C@H](CO)NC(=O)[C@@H](NC(=O)[C@H](Cc1ccccc1)NC(=O)[C@@H](NC(=O)CNC(=O)[C@H](CCC(N)=O)NC(=O)[C@H](C)NC(=O)[C@@H](Cc1ccc(O)cc1)NC(C)=O)[C@@H](C)O)[C@@H](C)O)C(=O)N[C@@H](CO)C(=O)N[C@@H](CCCCN)C(=O)N[C@@H](Cc1ccc(O)cc1)C(=O)N[C@@H](CC(C)C)C(=O)N[C@@H](CC(=O)O)C(=O)N[C@@H](CCC(=O)O)C(=O)N[C@@H](CCCNC(=N)N)C(=O)N[C@@H](C)C(=O)N[C@@H](C)C(=O)N[C@@H](CCC(N)=O)C(=O)N[C@@H](CC(=O)O)C(=O)N[C@@H](Cc1ccccc1)C(=O)N[C@H](C(=O)N[C@@H](CCC(N)=O)C(=O)N[C@@H](Cc1c[nH]c2ccccc12)C(=O)N[C@@H](CC(C)C)C(=O)N[C@@H](CC(C)C)C(=O)N[C@@H](CC(=O)O)C(=O)N[C@@H](C)C(=O)NCC(=O)N1CCC[C@H]1C(=O)N[C@@H](CO)C(=O)N[C@@H](CO)C(=O)NCC(=O)N[C@@H](C)C(=O)N1CCC[C@H]1C(=O)N1CCC[C@H]1C(=O)N1CCC[C@H]1C(=O)N[C@@H](CO)C(N)=O)C(C)C)C(=O)O` [compound 143] (Ac-[dY]AQGTFTSDK([γGlu-Palmitoyl])SKYLDERAAQDFVQWLLDAGPSSGAPPPS-NH2), for which the EC50 on GLP-1 receptor (setting [1]) worked out at 3 pM; on glucagon receptor (setting [1]) it was 0.004 nM; at GIP receptor (setting [1]), 3 pM.
Take `CCCCCCCCCCCCCCCC(=O)N[C@@H](CCC(=O)NCCCC[C@H](NC(=O)[C@H](CC(=O)O)NC(=O)[C@H](CO)NC(=O)[C@@H](NC(=O)[C@H](Cc1ccccc1)NC(=O)[C@@H](NC(=O)CNC(=O)[C@H](CCC(=O)O)NC(=O)[C@H](C)NC(=O)[C@@H](Cc1ccc(O)cc1)NC(C)=O)[C@@H](C)O)[C@@H](C)O)C(=O)N[C@@H](CO)C(=O)N[C@@H](CCCCN)C(=O)N[C@@H](Cc1ccc(O)cc1)C(=O)N[C@@H](CC(C)C)C(=O)N[C@@H](CC(=O)O)C(=O)N[C@@H](CCC(=O)O)C(=O)N[C@@H](CCCNC(=N)N)C(=O)N[C@@H](C)C(=O)N[C@@H](C)C(=O)N[C@@H](CCC(N)=O)C(=O)N[C@@H](CC(=O)O)C(=O)N[C@@H](Cc1ccccc1)C(=O)N[C@H](C(=O)N[C@@H](CCC(N)=O)C(=O)N[C@@H](Cc1c[nH]c2ccccc12)C(=O)N[C@@H](CC(C)C)C(=O)N[C@@H](CC(C)C)C(=O)N[C@@H](CCC(=O)O)C(=O)N[C@@H](C)C(=O)NCC(=O)N1CCC[C@H]1C(=O)N[C@@H](CO)C(=O)N[C@@H](CO)C(=O)NCC(=O)N[C@@H](C)C(=O)N1CCC[C@H]1C(=O)N1CCC[C@H]1C(=O)N1CCC[C@H]1C(=O)N[C@@H](CO)C(N)=O)C(C)C)C(=O)O` [compound 144] (Ac-[dY]AEGTFTSDK([γGlu-Palmitoyl])SKYLDERAAQDFVQWLLEAGPSSGAPPPS-NH2): the EC50 amounted to 17 pM on GLP-1 receptor (setting [2]), 1.3 nM on glucagon receptor (setting [2]) and 3 pM on GIP receptor (setting [2]).
`CCCCCCCCCCCCCCCC(=O)N[C@@H](CCC(=O)NCCCC[C@H](NC(=O)[C@H](CC(=O)O)NC(=O)[C@H](CO)NC(=O)[C@@H](NC(=O)[C@H](Cc1ccccc1)NC(=O)[C@@H](NC(=O)CNC(=O)[C@H](CCC(=O)O)NC(=O)[C@H](C)NC(=O)CCc1ccc(O)cc1)[C@@H](C)O)[C@@H](C)O)C(=O)N[C@@H](CO)C(=O)N[C@@H](CCCCN)C(=O)N[C@@H](Cc1ccc(O)cc1)C(=O)N[C@@H](CC(C)C)C(=O)N[C@@H](CC(=O)O)C(=O)N[C@@H](CCC(=O)O)C(=O)N[C@@H](CCCNC(=N)N)C(=O)N[C@@H](C)C(=O)N[C@@H](C)C(=O)N[C@@H](CCC(N)=O)C(=O)N[C@@H](CC(=O)O)C(=O)N[C@@H](Cc1ccccc1)C(=O)N[C@H](C(=O)N[C@@H](CCC(N)=O)C(=O)N[C@@H](Cc1c[nH]c2ccccc12)C(=O)N[C@@H](CC(C)C)C(=O)N[C@@H](CC(C)C)C(=O)N[C@@H](CCC(=O)O)C(=O)NCC(=O)NCC(=O)N1CCC[C@H]1C(=O)N[C@@H](CO)C(=O)N[C@@H](CO)C(=O)NCC(=O)N[C@@H](C)C(=O)N1CCC[C@H]1C(=O)N1CCC[C@H]1C(=O)N1CCC[C@H]1C(=O)N[C@@H](CO)C(N)=O)C(C)C)C(=O)O` [compound 145]: the EC50 on GLP-1 receptor (setting [2]) was found to be 3 pM; at glucagon receptor (setting [2]), 3.73 nM; on GIP receptor (setting [2]), 3 pM.
In the case of `CCCCCCCCCCCCCCCC(=O)N[C@@H](CCC(=O)NCCCC[C@H](NC(=O)[C@H](CC(=O)O)NC(=O)[C@H](CO)NC(=O)[C@@H](NC(=O)[C@H](Cc1ccccc1)NC(=O)[C@@H](NC(=O)CNC(=O)[C@H](CCC(N)=O)NC(=O)[C@H](C)NC(=O)[C@@H](Cc1ccc(O)cc1)NC(C)=O)[C@@H](C)O)[C@@H](C)O)C(=O)N[C@@H](CO)C(=O)N[C@@H](CCCCN)C(=O)N[C@@H](Cc1ccc(O)cc1)C(=O)N[C@@H](CC(C)C)C(=O)N[C@@H](CC(=O)O)C(=O)N[C@@H](CCC(=O)O)C(=O)N[C@@H](CCCNC(=N)N)C(=O)N[C@@H](C)C(=O)N[C@@H](C)C(=O)N[C@@H](CCC(N)=O)C(=O)N[C@@H](CC(=O)O)C(=O)N[C@@H](Cc1ccccc1)C(=O)N[C@H](C(=O)N[C@@H](CCC(N)=O)C(=O)N[C@@H](Cc1c[nH]c2ccccc12)C(=O)N[C@@H](CC(C)C)C(=O)N[C@@H](CC(C)C)C(=O)N[C@@H](CCC(=O)O)C(=O)N[C@@H](C)C(=O)NCC(=O)N1CCC[C@H]1C(=O)N[C@@H](CO)C(=O)N[C@@H](CO)C(=O)NCC(=O)N[C@@H](C)C(=O)N1CCC[C@H]1C(=O)N1CCC[C@H]1C(=O)N1CCC[C@H]1C(=O)N[C@@H](CO)C(N)=O)C(C)C)C(=O)O` [compound 146] (Ac-[dY]AQGTFTSDK([γGlu-Palmitoyl])SKYLDERAAQDFVQWLLEAGPSSGAPPPS-NH2), the EC50 on GLP-1 receptor (setting [1]) was determined as 7 pM; at glucagon receptor (setting [1]), 0.009 nM; at GIP receptor (setting [1]), 6 pM.
Turning to `CCCCCCCCCCCCCCCC(=O)N[C@@H](CCC(=O)NCCCC[C@H](NC(=O)[C@H](CC(=O)O)NC(=O)[C@H](CO)NC(=O)[C@@H](NC(=O)[C@H](Cc1ccccc1)NC(=O)[C@@H](NC(=O)CNC(=O)[C@H](CCC(=O)O)NC(=O)[C@H](C)NC(=O)[C@@H](Cc1c[nH]cn1)NC(C)=O)[C@@H](C)O)[C@@H](C)O)C(=O)N[C@@H](CO)C(=O)N[C@@H](CCCCN)C(=O)N[C@@H](Cc1ccc(O)cc1)C(=O)N[C@@H](CC(C)C)C(=O)N[C@@H](CC(=O)O)C(=O)N[C@@H](CCC(=O)O)C(=O)N[C@@H](CCCNC(=N)N)C(=O)N[C@@H](C)C(=O)N[C@@H](C)C(=O)N[C@@H](CCC(N)=O)C(=O)N[C@@H](CC(=O)O)C(=O)N[C@@H](Cc1ccccc1)C(=O)N[C@H](C(=O)N[C@@H](CCC(N)=O)C(=O)N[C@@H](Cc1c[nH]c2ccccc12)C(=O)N[C@@H](CC(C)C)C(=O)N[C@@H](CC(C)C)C(=O)N[C@@H](CCC(=O)O)C(=O)NCC(=O)NCC(=O)N1CCC[C@H]1C(=O)N[C@@H](CO)C(=O)N[C@@H](CO)C(=O)NCC(=O)N[C@@H](C)C(=O)N1CCC[C@H]1C(=O)N1CCC[C@H]1C(=O)N1CCC[C@H]1C(=O)N[C@@H](CO)C(N)=O)C(C)C)C(=O)O` [compound 148], the EC50 at GLP-1 receptor (setting [2]) was 2 pM; at glucagon receptor (setting [2]), 0.178 nM; on GIP receptor (setting [2]), 7 pM.

(Values after patent publication US9868772B2 (INDIANA UNIVERSITY RESEARCH AND TECHNOLOGY CORPORATION, priority 2012, dated 2018).)
